In patent US20160220569A1, “CDK4/6 Inhibitor Dosage Formulations For The Protection Of Hematopoietic Stem And Progenitor Cells During Chemotherapy” (G1 Therapeutics, Inc., priority 2015, published 2016):
Read-outs that look alike come from different tables or passages of the source.

Experiment: 14-day oral gavage toxicokinetic study in rats
Format: in vivo
Settings: male, rat, plasma, po; for concentration at 8 h / concentration at 12 h / concentration at 24 h / concentration at […] / concentration at 0.5 h / concentration at 1 h / concentration at 2 h / concentration at 4 h: rats; for half-life: read-out: t½ (converted)
Description: Plasma was obtained from blood samples collected from rats in a composite sampling scheme, with 3 samples collected per sex, per dose, at each target collection time, as illustrated in Table 21 to Table 25. Samples were collected from the vehicle control group on Day 1 and Day 14 at 3 hour after administration. […] Blood samples were collected in tubes containing K3EDTA as an anticoagulant and placed on ice until processed to plasma via centrifugation. Samples were stored frozen at −80° C. until shipment to the bioanalytical laboratory for analysis.
The following parameters were determined:
Cmax: Maximum observed plasma concentration (ng/mL).
A value of 0 ng/mL was assigned to all values below the lower limit of quantitation (BLQ, <10.0 ng/mL).
AUC(0-inf): Area under the plasma concentration vs. time curve extrapolated from 0 to infinity (ng*h/mL), calculated as AUC(0-t)+AUC(t-inf) where AUC(t-inf) is calculated as last measurable concentration (CLast) divided by ke, where ke is the elimination rate constant determined by linear regression of the last three analytically measured points on the log plasma concentration vs. time curve. The selection criteria of the data points for inclusion in the calculation of ke required that at least three data points representing the terminal phase (after Tmax) were regressed and that R2≧0.850 when rounded.
CL: Clearance (L/h/kg), calculated as the dose divided by AUC(0-t).
Vd: Volume of distribution (L/kg), calculated as dose divided by the product of ke and AUC(0-inf).
Vdss: Steady state volume of distribution (L/kg), calculated as clearance […] mean residence time, where mean residence time is calculated as the area under the first moment curve divided by AUC(0-t).
t½: Elimination half-life (h), calculated as ln(2)/ke, where ke is the elimination rate constant determined by linear regression. Half-life was defined as not determined if regression criteria (specified in AUC(0-inf) above) were not met.
Cmax/Dose: Normalized Cmax, calculated as Cmax divided by total dose.
AUC/Dose: Normalized AUC, calculated as AUC(0-t) divided by total dose.
ii. Statistical Analysis Mean and standard deviation (SD) were calculated in Watson. Values of BLQ were assigned a value of 0 ng/mL for mean calculations. Concentration values and derived TK parameters were reported to three significant figures.

[1] = 15 mg/kg, oral 15 mg/kg, Study Day 1, Male
[2] = 15 mg/kg, oral 15 mg/kg, Study Day 14, Male
[3] = 30 mg/kg, oral 30 mg/kg, Study Day 1, Male

CN1CCN(c2ccc(Nc3ncc4cc5n(c4n3)C3(CCCCC3)CNC5=O)nc2)CC1 [Compound 1, 2′-((5-(4-methylpiperazin-1-yl)pyridin-2-yl)amino)-7′,8′-dihydro-6′H-spiro[cyclohexane-1,9′-pyrazino[1′,2′:1,5]pyrrolo[2,3-d]pyrimidin]-6′-one]
concentration at 8 h (15 mg/kg, Mean Compound 1 Plasma Concentration, oral 15 mg/kg, Day 1, 8 h, Male): 1020 ng/mL
concentration at 12 h (15 mg/kg, Mean Compound 1 Plasma Concentration, oral 15 mg/kg, Day 1, 12 h, Male): 618 ng/mL
concentration at 24 h (15 mg/kg, Mean Compound 1 Plasma Concentration, oral 15 mg/kg, Day 1, 24 h, Male): 84.5 ng/mL
concentration at […] (15 mg/kg, Mean Compound 1 Plasma Concentration, oral 15 mg/kg, Day 1, […], Male): 35.6 ng/mL
concentration at 0.5 h (15 mg/kg, Mean Compound 1 Plasma Concentration, oral 15 mg/kg, Day 14, 0.5 h, Male): 740 ng/mL
concentration at 1 h (15 mg/kg, Mean Compound 1 Plasma Concentration, oral 15 mg/kg, Day 14, 1 h, Male): 842 ng/mL
concentration at 2 h (15 mg/kg, Mean Compound 1 Plasma Concentration, oral 15 mg/kg, Day 14, 2 h, Male): 1320 ng/mL
concentration at 4 h (15 mg/kg, Mean Compound 1 Plasma Concentration, oral 15 mg/kg, Day 14, 4 h, Male): 1080 ng/mL
concentration at 8 h (15 mg/kg, Mean Compound 1 Plasma Concentration, oral 15 mg/kg, Day 14, 8 h, Male): 1170 ng/mL
concentration at 12 h (15 mg/kg, Mean Compound 1 Plasma Concentration, oral 15 mg/kg, Day 14, 12 h, Male): 626 ng/mL
concentration at 24 h (15 mg/kg, Mean Compound 1 Plasma Concentration, oral 15 mg/kg, Day 14, 24 h, Male): 60.6 ng/mL
concentration at […] (15 mg/kg, Mean Compound 1 Plasma Concentration, oral 15 mg/kg, Day 14, […], Male): 107 ng/mL
AUC(0-inf) [1]: 16000 ng·h/mL
AUC(0-t) [1]: 15500 ng·h/mL
Cmax [1]: 1160 ng/mL
Tmax [1]: 4 h
half-life [1]: 4.39 h
AUC(0-t) [2]: 16300 ng·h/mL
Cmax [2]: 1320 ng/mL
Tmax [2]: 2 h
half-life [2]: 3.7 h
concentration at 0.5 h (30 mg/kg, Individual Compound 1 Plasma Concentration, daily oral 30 mg/kg, Day 1, Male, 0.5 h): 1450 ng/mL
concentration at 1 h (30 mg/kg, Individual Compound 1 Plasma Concentration, daily oral 30 mg/kg, Day 1, Male, 1 h): 1620 ng/mL
concentration at 2 h (30 mg/kg, Individual Compound 1 Plasma Concentration, daily oral 30 mg/kg, Day 1, Male, 2 h): 1810 ng/mL
concentration at 4 h (30 mg/kg, Individual Compound 1 Plasma Concentration, daily oral 30 mg/kg, Day 1, Male, 4 h): 2660 ng/mL
concentration at 8 h (30 mg/kg, Individual Compound 1 Plasma Concentration, daily oral 30 mg/kg, Day 1, Male, 8 h): 2000 ng/mL
concentration at 12 h (30 mg/kg, Individual Compound 1 Plasma Concentration, daily oral 30 mg/kg, Day 1, Male, 12 h): 1930 ng/mL
concentration at 24 h (30 mg/kg, Individual Compound 1 Plasma Concentration, daily oral 30 mg/kg, Day 1, Male, 24 h): 280 ng/mL
concentration at 0.5 h (30 mg/kg, Individual Compound 1 Plasma Concentration, daily oral 30 mg/kg, Day 14, Male, 0.5 h): 977 ng/mL
concentration at 2 h (30 mg/kg, Individual Compound 1 Plasma Concentration, daily oral 30 mg/kg, Day 14, Male, 2 h): 1630 ng/mL
concentration at 4 h (30 mg/kg, Individual Compound 1 Plasma Concentration, daily oral 30 mg/kg, Day 14, Male, 4 h): 2080 ng/mL
concentration at 8 h (30 mg/kg, Individual Compound 1 Plasma Concentration, daily oral 30 mg/kg, Day 14, Male, 8 h): 1750 ng/mL
concentration at 12 h (30 mg/kg, Individual Compound 1 Plasma Concentration, daily oral 30 mg/kg, Day 14, Male, 12 h): 1230 ng/mL
concentration at 24 h (30 mg/kg, Individual Compound 1 Plasma Concentration, daily oral 30 mg/kg, Day 14, Male, 24 h): 208 ng/mL
concentration at […] (30 mg/kg, Individual Compound 1 Plasma Concentration, daily oral 30 mg/kg, Day 14, Male, […]): 197 ng/mL
concentration at 0.5 h (30 mg/kg, Mean Compound 1 Plasma Concentration, oral 30 mg/kg, Day 1, 0.5 h, Male): 1420 ng/mL
concentration at 1 h (30 mg/kg, Mean Compound 1 Plasma Concentration, oral 30 mg/kg, Day 1, 1 h, Male): 1400 ng/mL
concentration at 2 h (30 mg/kg, Mean Compound 1 Plasma Concentration, oral 30 mg/kg, Day 1, 2 h, Male): 1620 ng/mL
concentration at 4 h (30 mg/kg, Mean Compound 1 Plasma Concentration, oral 30 mg/kg, Day 1, 4 h, Male): 2240 ng/mL
concentration at 8 h (30 mg/kg, Mean Compound 1 Plasma Concentration, oral 30 mg/kg, Day 1, 8 h, Male): 1860 ng/mL
concentration at 24 h (30 mg/kg, Mean Compound 1 Plasma Concentration, oral 30 mg/kg, Day 1, 24 h, Male): 234 ng/mL
concentration at […] (30 mg/kg, Mean Compound 1 Plasma Concentration, oral 30 mg/kg, Day 1, […], Male): 208 ng/mL
concentration at 0.5 h (30 mg/kg, Mean Compound 1 Plasma Concentration, oral 30 mg/kg, Day 14, 0.5 h, Male): 993 ng/mL
concentration at 1 h (30 mg/kg, Mean Compound 1 Plasma Concentration, oral 30 mg/kg, Day 14, 1 h, Male): 1530 ng/mL
concentration at 2 h (30 mg/kg, Mean Compound 1 Plasma Concentration, oral 30 mg/kg, Day 14, 2 h, Male): 1590 ng/mL
concentration at 4 h (30 mg/kg, Mean Compound 1 Plasma Concentration, oral 30 mg/kg, Day 14, 4 h, Male): 2030 ng/mL
concentration at 8 h (30 mg/kg, Mean Compound 1 Plasma Concentration, oral 30 mg/kg, Day 14, 8 h, Male): 1880 ng/mL
concentration at 12 h (30 mg/kg, Mean Compound 1 Plasma Concentration, oral 30 mg/kg, Day 14, 12 h, Male): 1300 ng/mL
concentration at […] (30 mg/kg, Mean Compound 1 Plasma Concentration, oral 30 mg/kg, Day 14, […], Male): 207 ng/mL
AUC(0-inf) [3]: 34700 ng·h/mL
AUC(0-t) [3]: 33000 ng·h/mL
Cmax [3]: 2240 ng/mL
Tmax [3]: 4 h
half-life [3]: 5.05 h
AUC(0-inf) (30 mg/kg, oral 30 mg/kg, Study Day 14, Male): 30700 ng·h/mL
